Test results reported in patent US10017481B2, “Conformationally constrained, fully synthetic macrocyclic compounds” (POLYPHOR AG, priority 2012, dated 2018).
In brackets after ≈: the same amount, converted by molar mass. Read-outs that look alike come from different tables or passages of the source.

Tests used:
[1] = system: S. pneumoniae DSM 20566 11A11, 3313A6, 704CG4B21, 82BERG72; assay: Antimicrobial assay, broth microdilution MIC, S. pneumoniae strains; assay type: cell-based; details: Streptococcus pneumoniae, DSM20566
Experimental: (§1) The antimicrobial activities of the compounds were determined in 96-well plates (Greiner, polystyrene) by the standard NCCLS broth microdilution method (National Committee for Clinical Laboratory Standards 1993. Methods for dilution antimicrobial susceptibility tests for bacteria that grow aerobically, 3rd ed. Approved standard M7-A6. National Committee for Clinical laboratory standards, Wayne, Pa.) with slight modifications. Inocula of the microorganisms were diluted into Mueller-Hinton II (MH, cation adjusted) broth+0.002% P-80 and compared with a 0.5 McFarland standard to give appr. 10^6 colony forming units (CFU)/mL. Aliquots (50 μl) of inoculate were added to 50 μl of MH broth+0.002% P-80 containing the compounds in serial two-fold dilutions. The following microorganisms were used to determine antibiotic selectivity of the compounds: S. pneumoniae DSM 20566 11A11, 3313A6, 704CG4B21, 82BERG72; S. aureus ATCC 29213, ATCC 25923, DSM 11729, DSM 46320, S. aureus 39. Antimicrobial activities of the compounds were expressed as the minimal inhibitory concentration (MIC) in μg/mL at which no visible growth was observed after 18-20 hours of incubation at 36° C.

[2] = system: S. aureus ATCC 29213, ATCC 25923, DSM 11729, DSM 46320, S. aureus 39; assay: Antimicrobial assay, broth microdilution MIC, S. aureus strains; assay type: cell-based; details: Staphylococcus aureus
Experimental: as §1

[3] = Metabolic stability assay, human liver microsomes; assay type: in vitro ADME; details: human microsomes, 10 μM, 37° C.; for half-life at 10 μM: both sexes, liver microsomes, 1 mg/ml protein, read-out: Metabolic Stability T ½ [min] hum
Summary of the method: (§2)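 Pooled human (50 donors, mixed gender) or CD-1 mouse microsomes at 1 mg/mL protein, 10 μM compound, 100 mM potassium phosphate with NADPH-regenerating system, 37 °C in duplicate. Samples at 0, 5, 10, 20, 60 min analysed by HPLC/MS/MS; turnover as % of 0-min value and T½ (min) calculated.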

[4] = Plasma stability assay, CD-1 mouse plasma; assay type: in vitro ADME; details: for Plasma Stability 240 min mouse/(rat) [% remain.]: CD-1 mouse plasma, 10 μM, 37° C.; for half-life at 10 μM: both sexes, CD-1, mouse, plasma
Summary of the method: (§3)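 Compounds at 10 μM were incubated at 37 °C in triplicate in sodium citrate-stabilized plasma (human, or pooled mixed-gender CD-1 mouse). Samples taken at 0–240 min were acetonitrile-quenched and analyzed by HPLC/MS/MS. Remaining peak area as % of t0 gave endpoint stability (%) and half-life (min).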

[5] = Metabolic stability assay, CD-1 mouse microsomes; assay type: in vitro ADME; details: CD-1 mouse microsomes, 10 μM, 37° C.; for half-life at 10 μM: both sexes, 1 mg/ml protein, read-out: Metabolic Stability T ½ [min] mouse/(rat)
Summary of the method: as §2

[6] = Plasma stability assay, human plasma; assay type: in vitro ADME; details: for Plasma Stability 240 min hum [% remain.]: human plasma, 10 μM, 37° C.; for half-life at 10 μM: human, plasma
Summary of the method: as §3

[7] = strain DSM 20566 (Table 32.7), read-out: MIC S. pneumoniae DSM 20566
[8] = strain ATCC 25923, read-out: MIC S. aureus ATCC 25923
[9] = strain ATCC 29213, read-out: MIC S. aureus ATCC 29213
[10] = strain DSM 11729, read-out: MIC S. aureus DSM 11729
[11] = strain S. aureus 39, read-out: MIC S. aureus 39
[12] = strain 11A11, read-out: MIC S. pneumoniae 11A11
[13] = strain 82BERG72, read-out: MIC S. pneumoniae 82BERG72
[14] = strain 704CG4B21, read-out: MIC S. pneumoniae 704CG4B21
[15] = strain 3313A6, read-out: MIC S. pneumoniae 3313A6
[16] = strain DSM 20566 (Table 32.8), read-out: MIC S. pneumoniae DSM 20566

Row | Compound | MIC [1, 7] | MIC [2, 8] | MIC [2, 9] | MIC [2, 10] | MIC [2, 11] | half-life at 10 μM [3] | Metabolic Stability 60 min hum [% remain.] [3] | Plasma Stability 240 min mouse/(rat) [% remain.] [4] | half-life at 10 μM [4] | Metabolic Stability 60 min mouse/(rat) [% remain.] [5] | half-life at 10 μM [5] | Plasma Stability 240 min hum [% remain.] [6] | half-life at 10 μM [6] | MIC ([2]; strain DSM 46320, read-out: MIC S. aureus DSM 46320) | MIC [1, 12] | MIC [1, 13] | MIC [1, 14] | MIC [1, 15] | MIC [1, 16]
1 | CC(C)(C)OC(=O)N[C@H]1C[C@H]2COc3cccc(c3)-c3ccccc3C(=O)NCC[C@@H](N)C(=O)N2C1 [Ex. 2, tert-butyl N-[(12R,16S,18S)-12-amino-8,13-dioxo-20-oxa-9,14-diazatetracyclo[19.3.1.0^2,7.0^14,18]pentacosa-1(25),2,4,6,21,23-hexaen-16-yl]carbamate] | 8 µg/mL (≈ 16.2 µM) | 16 µg/mL (≈ 32.3 µM) | 8 to 16 µg/mL (≈ 16.2 to 32.3 µM) | 8 to 16 µg/mL (≈ 16.2 to 32.3 µM) | 4 µg/mL (≈ 8.09 µM) | – | – | – | – | – | – | – | – | – | – | – | – | – | –
2 | CC(C)CNC(=O)[C@@H]1CCC(=O)N[C@@H](C)COc2cccc(c2)-c2cccc(c2)C(=O)N1C [Ex. 80, (9S,14S)-N-isobutyl-9,15-dimethyl-11,16-dioxo-7-oxa-10,15-diazatricyclo [15.3.1.1^2,6]docosa-1(21),2(22),3,5,17,19-hexaene-14-carboxamide] | – | – | – | – | – | 19 min | 6 % remain. | 84 % remain. | > 4 h | 19 % remain. | 24 min | 90 % remain. | > 4 h | – | – | – | – | – | –
3 | C[C@H]1COc2cccc(c2)-c2cccc(c2)C(=O)N(C)[C@H](C(=O)NCCO)CCC(=O)N1 [Ex. 81, (9S,14S)-N-(2-hydroxyethyl)-9,15-dimethyl-11,16-dioxo-7-oxa-10,15-diazatricyclo[15.3.1.1^2,6]docosa-1(21),2(22),3,5,17,19-hexaene-14-carboxamide] | – | – | – | – | – | > 60 min | 100 % remain. | 100 % remain. | > 4 h | 97 % remain. | > 60 min | 88 % remain. | > 4 h | – | – | – | – | – | –
4 | C[C@H]1COc2cccc(c2)-c2cccc(c2)C(=O)N(C)[C@H](C(=O)NCC(=O)O)CCC(=O)N1 [Ex. 83, 2-({[(9S,14S)-9,15-dimethyl-11,16-dioxo-7-oxa-10,15-diazatricyclo[15.3.1.1^2,6]docosa-1(21),2(22),3,5,17,19-hexaen-14-yl]carbonyl}amino)acetic acid] | – | – | – | – | – | > 60 min | 85 % remain. | 93 % remain. | > 4 h | 96 % remain. | > 60 min | 85 % remain. | > 4 h | – | – | – | – | – | –
5 | C[C@H]1COc2cccc(c2)-c2cccc(c2)C(=O)N(C)[C@H](C(=O)NCCN(C)C)CCC(=O)N1 [Ex. 84, (9S,14S)-N-[2-(dimethylamino)ethyl]-9,15-dimethyl-11,16-dioxo-7-oxa-10,15-diazatricyclo[15.3.1.1^2,6]docosa-1(21),2(22),3,5,17,19-hexaene-14-carboxamide] | – | – | – | – | – | > 60 min | 97 % remain. | 56 % remain. | > 4 h | 71 % remain. | > 60 min | 99 % remain. | > 4 h | – | – | – | – | – | –
6 | C[C@H]1COc2cccc(c2)-c2cccc(c2)C(=O)N(C)[C@H](C(=O)NCCCN2CCCC2)CCC(=O)N1 [Ex. 85, (9S,14S)-9,15-dimethyl-11,16-dioxo-N-[3-(1-pyrrolidinyl)propyl]-7-oxa-10,15-diazatricyclo[15.3.1.1^2,6]docosa-1(21),2(22),3,5,17,19-hexaene-14-carboxamide] | – | – | – | – | – | > 60 min | 100 % remain. | 88 % remain. | > 4 h | 80 % remain. | > 60 min | 100 % remain. | > 4 h | – | – | – | – | – | –
7 | C[C@H]1COc2cccc(c2)-c2cccc(c2)C(=O)N(C)[C@H](C(=O)N2CCOCC2)CCC(=O)N1 [Ex. 87, (9S,14S)-9,15-dimethyl-14-(morpholinocarbonyl)-7-oxa-10,15-diazatricyclo [15.3.1.1^2,6]docosa-1(21),2(22),3,5,17,19-hexaene-11,16-dione] | – | – | – | – | – | 27 min | 17 % remain. | 90 % remain. | > 4 h | 63 % remain. | 60 min | 100 % remain. | > 4 h | – | – | – | – | – | –
8 | C[C@H]1COc2cccc(c2)-c2cccc(c2)C(=O)N(C)[C@H](C(=O)NCc2ccc3ccccc3c2)CCC(=O)N1 [Ex. 89, (9S,14S)-9,15-dimethyl-N-(2-naphthylmethyl)-11,16-dioxo-7-oxa-10,15-diazatricyclo[15.3.1.1^2,6]docosa-1(21),2(22),3,5,17,19-hexaene-14-carboxamide] | – | – | – | – | – | 13 min | 8 % remain. | 76 % remain. | > 4 h | 2 % remain. | 10 min | 100 % remain. | > 4 h | – | – | – | – | – | –
9 | CC(C)(C)OC(=O)N[C@@H]1C[C@H]2COc3cccc(c3)-c3cncc(c3)C(=O)NCCNCC(=O)N2C1 [Ex. 91, tert-butyl N-[(9S,11R)-14,20-dioxo-7-oxa-13,16,19,23-tetraazatetracyclo[19.3.1.1^2,6.0^9,13]hexacosa-1(25),2(26),3,5,21,23-hexaen-11-yl]carbamate] | > 16 µg/mL | 4 µg/mL (≈ 8.07 µM) | 2 to 4 µg/mL (≈ 4.04 to 8.07 µM) | 2 µg/mL (≈ 4.04 µM) | 8 µg/mL (≈ 16.1 µM) | – | – | – | – | – | – | – | – | 4 µg/mL (≈ 8.07 µM) | – | – | – | – | –
10 | N[C@H]1C[C@H]2COc3cc(F)cc(c3)-c3csc(c3)C(=O)N[C@H](C(=O)Nc3ccccc3)COCCCCC(=O)N2C1 [Ex. 247, (8S,18S,20S)-18-amino-25-fluoro-6,15-dioxo-N-phenyl-10,22-dioxa-4-thia-7,16-diazatetracyclo[21.3.1.1^2,5.0^16,20]octacosa-1(27),2,5(28),23,25-pentaene-8-carboxamide] | – | – | – | – | – | – | – | – | – | – | – | – | – | – | 16 µg/mL (≈ 27.6 µM) | 8 µg/mL (≈ 13.8 µM) | 16 µg/mL (≈ 27.6 µM) | 16 µg/mL (≈ 27.6 µM) | 16 µg/mL (≈ 27.6 µM)
11 | N[C@H]1C[C@H]2COc3cc(F)cc(c3)-c3csc(c3)C(=O)N[C@H](C(=O)Nc3ccc(Cl)cc3)COCCCCC(=O)N2C1 [Ex. 257, (8S,18S,20S)-18-amino-N-(4-chlorophenyl)-25-fluoro-6,15-dioxo-10,22-dioxa-4-thia-7,16-diazatetracyclo[21.3.1.1^2,5.0^16,20]octacosa-1(27),2,5(28),23,25-pentaene-8-carboxamide] | – | – | – | – | – | – | – | – | – | – | – | – | – | – | 8 µg/mL (≈ 13 µM) | 2 µg/mL (≈ 3.25 µM) | 8 µg/mL (≈ 13 µM) | 8 µg/mL (≈ 13 µM) | 8 µg/mL (≈ 13 µM)
12 | Cc1cccc(NC(=O)[C@@H]2COCCCCC(=O)N3C[C@@H](N)C[C@H]3COc3cc(F)cc(c3)-c3csc(c3)C(=O)N2)c1 [Ex. 259, (8S,18S,20S)-18-amino-25-fluoro-N-(3-methylphenyl)-6,15-dioxo-10,22-dioxa-4-thia-7,16-diazatetracyclo[21.3.1.1^2,5.0^16,20]octacosa-1(27),2,5(28),23,25-pentaene-8-carboxamide] | – | – | – | – | – | – | – | – | – | – | – | – | – | – | 16 µg/mL (≈ 26.9 µM) | 4 µg/mL (≈ 6.73 µM) | 8 µg/mL (≈ 13.5 µM) | 8 µg/mL (≈ 13.5 µM) | 8 µg/mL (≈ 13.5 µM)
